From patent publication US12508247B2, “Controlled release injectable ondansetron formulations” (SHILPA MEDICARE LIMITED, priority 2019, dated 2025)
Read-outs that look alike come from different tables or passages of the source.

Experiment: Fasting single dose PK study in dogs: plasma ondansetron after intravenous bolus of marketed ondansetron injection (reference)
Format: in vivo
Settings: fasted male Beagle dogs; for C0: 2 mg/mL solution; for Vd: read-out: Vss
Experimental: Male Beagle dogs were fasted are divided into six groups as G1, G2, G3, G4, G5 and G6 each consisting of four dogs.
Blood samples were collected from each IM route dogs at 0 (pre-dose), 0.5, 1, 2, 4, 8, 16, 24, 36, 48, 72, 96, 120, 144, 168 and 240 h post-dose; for IV route dogs, blood samples were collected at 0 (pre-dose), 0.167, 0.33, 0.5, 0.75, 1, 2, 4, 8, 12 and 24 h post-dose and analysed for ondansetron in plasma and calculated using the noncompartmental analysis tool of the validated Phoenix WinNonlin software (Version 8.0). The summary of plasma pharmacokinetics parameters of ondansetron for G1 and G2 animals is summarized in Table—2 (FIGS. 1, 2) and G3, G4, G5 and G6 (FIGS. 3, 4, 5 and 6) animals is summarized in Table— 3.

`Cc1nccn1CC1CCc2c(c3ccccc3n2C)C1=O` (centres unmarked) [Ondansetron] gave a C0 (G1, IV bolus 4 mg/dog) of 110 ng/mL, an AUC(0-inf) (G1, IV bolus 4 mg/dog) of 107 ng·h/mL and an AUC(0-t) (G1, IV bolus 4 mg/dog) of 106 ng·h/mL. It also gave an MRT last (G1, IV bolus 4 mg/dog) of 1.12 h, a clearance (G1, IV bolus 4 mg/dog) of 644 mL/min and a half-life (G1, IV bolus 4 mg/dog) of 0.878 h. The Vd (G1, IV bolus 4 mg/dog) was 40.3 L, the C0 (G2, IV bolus 24 mg/dog) was 828 ng/mL and the AUC(0-inf) (G2, IV bolus 24 mg/dog) was 716 ng·h/mL. For the same compound, the AUC(0-t) (G2, IV bolus 24 mg/dog) was 715 ng·h/mL, the MRT last (G2, IV bolus 24 mg/dog) was 1.17 h and the clearance (G2, IV bolus 24 mg/dog) was 563 mL/min. It also gave a half-life (G2, IV bolus 24 mg/dog) of 1.28 h and a Vd (G2, IV bolus 24 mg/dog) of 36.3 L.
